# Assay results as given in patent publication US9187523B2 (priority 2006, dated 2015).
# Where a SMILES comes first, the peptide text is derived from it. The star is where a group is joined. Dabcyl = CN(C)c1ccc(N=Nc2ccc(C(=O)*)cc2)cc1; EDANS = O=S(=O)(O)c1cccc2c(NCCN*)cccc12
# System: Yersinia pestis cells lacking plague plasminogen activator gene
# Type: cell-based
smiles,measurement,value
CC[C@H](C)[C@H](NC(=O)[C@H](CCCNC(=N)N)NC(=O)[C@H](CCCNC(=N)N)NC(=O)c1ccc(N=Nc2ccc(N(C)C)cc2)cc1)C(=O)N[C@@H](CC(N)=O)C(=O)N[C@@H](CCCNC(=N)N)C(=O)N[C@@H](CCC(=O)NCCNc1cccc2c(S(=O)(=O)O)cccc12)C(N)=O [DABCYL-Arg-Arg-Ile-Asn-Arg-Glu-(EDANS)-NH2] (Dabcyl-RRINRE(EDANS)-NH2),fluorescence with Pla-negative mutant,low background fluorescence
